# Laboratory results as given in patent US9169254B2, “Spiroimidazolone derivative” (Chugai Seiyaku Kabushiki Kaisha, priority 2009, dated 2015).
# Counter-ions that a name gives are not always drawn.
# Biological target: T1, human PTH1 receptor (Homo sapiens, UniProt Q03431)
# T1 sequence (Q03431 27-593): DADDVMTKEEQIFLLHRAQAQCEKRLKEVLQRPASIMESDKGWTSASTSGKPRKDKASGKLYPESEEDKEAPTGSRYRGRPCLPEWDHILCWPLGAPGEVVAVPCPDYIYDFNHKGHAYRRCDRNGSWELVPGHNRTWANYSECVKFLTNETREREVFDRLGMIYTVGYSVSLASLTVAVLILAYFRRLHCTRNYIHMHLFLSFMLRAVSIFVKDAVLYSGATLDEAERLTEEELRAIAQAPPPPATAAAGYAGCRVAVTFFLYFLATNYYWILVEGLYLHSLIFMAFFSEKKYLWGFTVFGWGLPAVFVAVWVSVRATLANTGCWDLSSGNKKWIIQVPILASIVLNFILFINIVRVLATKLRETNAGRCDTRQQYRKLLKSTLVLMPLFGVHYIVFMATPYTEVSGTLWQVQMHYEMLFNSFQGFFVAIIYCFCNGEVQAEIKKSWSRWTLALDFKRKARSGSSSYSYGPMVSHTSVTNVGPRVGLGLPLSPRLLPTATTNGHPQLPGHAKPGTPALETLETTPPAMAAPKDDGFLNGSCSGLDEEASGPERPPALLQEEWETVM
# Test: In vitro cAMP signal activity in HKRK-B7 cells (LLC-PK1 cells overexpressing the human PTH1 receptor)
# Assay type: cell-based
# Details: HKRK-B7 cells; compound at 1×10^−3 M; cAMP produced as percentage of that produced by hPTH(1-34) at 100 nM
row,SMILES,cAMP production activity (%)
1,"Cc1cc(C(=O)N(C)C)ccc1CCS(=O)(=O)N1CCC2(CC1)N=C(c1cccc(C)c1C)NC2=O [Compound 113, 4-{2-[2-(2,3-dimethyl-phenyl)-4-oxo-1,3,8-triaza-spiro[4.5]dec-1-ene-8-sulfonyl]-ethyl}-3,N,N-trimethyl-benzamide]",111
2,"CC(=O)Nc1ccc(CCS(=O)(=O)N2CCC3(CC2)N=C([C@H]2CC[C@@H](CC=C(F)F)CC2)NC3=O)c(C)c1 [Compound 1068, N-[4-(2-{2-[4-(3,3-difluoro-allyl)-cyclohexyl]-4-oxo-1,3,8-triaza-spiro[4.5]dec-1-ene-8-sulfonyl}-ethyl)-3-methyl-phenyl]-acetamide]",68
3,"Cc1cc(OC2CCNCC2)ccc1CCS(=O)(=O)N1CCC2(CC1)N=C(c1cccc(OC(F)(F)F)c1)NC2=O [Compound 889, 8-{2-[2-Methyl-4-(piperidin-4-yloxy)-phenyl]-ethanesulfonyl}-2-(3-trifluoromethoxy-phenyl)-1,3,8-triaza-spiro[4.5]dec-1-en-4-one hydrochloride]",26
4,"Cc1cc(OC[C@H](O)CO)ccc1CCS(=O)(=O)N1CCC2(CC1)N=C(c1cccc(OC(F)(F)F)c1)NC2=O [Compound 325, 8-{2-[4-((R)-2,3-Dihydroxy-propoxy)-2-methyl-phenyl]-ethanesulfonyl}-2-(3-trifluoromethoxy-phenyl)-1,3,8-triaza-spiro[4.5]dec-1-en-4-one]",61
5,"O=C1NC(c2ccc(Cl)cc2Cl)=NC12CCN(S(=O)(=O)c1ccc(F)c(Cl)c1)CC2 [Compound 49, 8-(3-chloro-4-fluoro-benzenesulfonyl)-2-(2,4-dichloro-phenyl)-1,3,8-triaza-spiro[4.5]dec-1-en-4-one]",29
6,"COCCN(C(C)=O)c1cc(C)c(/C=C/S(=O)(=O)N2CCC3(CC2)N=C(C2CCC(C)CC2)NC3=O)c(C)c1 (centres unmarked) [Compound 514, N-(3,5-dimethyl-4-{(E)-2-[2-(4-methyl-cyclohexyl)-4-oxo-1,3,8-triaza-spiro[4.5]dec-1-ene-8-sulfonyl]-vinyl}-phenyl)-N-(2-methoxy-ethyl)-acetamide]",75
7,"O=C1NC(C2CCCCC2)=NC12CCN(S(=O)(=O)CCc1cccc3cnccc13)CC2 [Compound 320, 2-cyclohexyl-8-(2-isoquinolin-5-yl-ethanesulfonyl)-1,3,8-triaza-spiro[4.5]dec-1-en-4-one]",33
8,"Cc1cc(OC2CCN(C(=O)OC(C)(C)C)CC2)ccc1CCS(=O)(=O)N1CCC2(CC1)N=C(c1cccc(OC(F)(F)F)c1)NC2=O [Compound 859, 4-(3-methyl-4-{2-[4-oxo-2-(3-trifluoromethoxy-phenyl)-1,3,8-triaza-spiro[4.5]dec-1-ene-8-sulfonyl]-ethyl}-phenoxy)-piperidine-1-carboxylic acid tert-butyl ester]",26
9,"O=C1NC(C2CCCCC2)=NC12CCN(S(=O)(=O)CCc1ccc3c(ccn3CCOCCO)c1)CC2 [Compound 838, 2-cyclohexyl-8-(2-{1-[2-(2-hydroxy-ethoxy)-ethyl]-1H-indol-5-yl}-ethanesulfonyl)-1,3,8-triaza-spiro[4.5]dec-1-en-4-one]",75
10,"Cc1cc(N(CCF)C(N)=O)cc(C)c1/C=C/S(=O)(=O)N1CCC2(CC1)N=C(C1CCC(CCC(F)(F)F)CC1)NC2=O (centres unmarked) [Compound 694, 1-[3,5-Dimethyl-4-((E)-2-{4-oxo-2-[4-(3,3,3-trifluoro-propyl)-cyclohexyl]-1,3,8-triaza-spiro[4.5]dec-1-ene-8-sulfonyl}-vinyl)-phenyl]-1-(2-fluoro-ethyl)-urea]",77
11,"Cc1cc(C(=O)N2CCC3(CC2)COC3)cc(C)c1/C=C/S(=O)(=O)N1CCC2(CC1)N=C(c1ccc(F)c(C(F)(F)F)c1)NC2=O [Compound 644, 8-{(E)-2-[2,6-dimethyl-4-(2-oxa-7-aza-spiro[3.5]nonane-7-carbonyl)-phenyl]-ethenesulfonyl}-2-(4-fluoro-3-trifluoromethyl-phenyl)-1,3,8-triaza-spiro[4.5]dec-1-en-4-one]",75
